From PubChem BioAssay AID248 (DTP/NCI, 2004)
Several values for one entry are separate records, joined by “and”; a condition that tells them apart may be missing. Equal values may be shown once. Toxic doses and inconclusive results are not listed.

Tested on: L1210 leukemia ip in BDF1 mice, survival T/C
Assay: NCI In Vivo Anticancer Drug Screen. Data for tumor model L1210 Leukemia (intraperitoneal) in B6D2F1 (BDF1) mice
Settings: endpoint: mean survival time, higher = longer survival
Method in brief: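 Read-out is survival time, reported as the treated-group measurement over the vehicle-control measurement.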

[1] = dose: 100.0 mg/kg/injection, schedule: Q01DX009 (ip), vehicle: Klucel (hydroxypropylcellulose) (HPC)
[2] = dose: 100.0 mg/kg/injection, schedule: Q04DX003 (ip), vehicle: Klucel (hydroxypropylcellulose) (HPC)
[3] = dose: 200.0 mg/kg/injection, schedule: Q01DX009 (ip), vehicle: Klucel (hydroxypropylcellulose) (HPC)
[4] = dose: 200.0 mg/kg/injection, schedule: Q04DX003 (ip), vehicle: Klucel (hydroxypropylcellulose) (HPC)
[5] = dose: 400.0 mg/kg/injection, schedule: Q04DX003 (ip), vehicle: Klucel (hydroxypropylcellulose) (HPC)
[6] = dose: 100.0 mg/kg/injection, schedule: Q01DX001 (ip), vehicle: carboxymethylcellulose (CMC)
[7] = dose: 200.0 mg/kg/injection, schedule: Q01DX001 (ip), vehicle: carboxymethylcellulose (CMC)
[8] = dose: 400.0 mg/kg/injection, schedule: Q01DX001 (ip), vehicle: carboxymethylcellulose (CMC)
[9] = dose: 100.0 mg/kg/injection, schedule: Q04DX003 (ip), vehicle: other
[10] = dose: 200.0 mg/kg/injection, schedule: Q04DX003 (ip), vehicle: other
[11] = dose: 100.0 mg/kg/injection, schedule: Q01DX009 (ip), vehicle: saline
[12] = dose: 100.0 mg/kg/injection, schedule: Q04DX003 (ip), vehicle: saline
[13] = dose: 200.0 mg/kg/injection, schedule: Q01DX009 (ip), vehicle: saline
[14] = dose: 200.0 mg/kg/injection, schedule: Q04DX003 (ip), vehicle: saline
[15] = dose: 400.0 mg/kg/injection, schedule: Q04DX003 (ip), vehicle: saline
[16] = dose: 400.0 mg/kg/injection, schedule: Q01DX001 (ip), vehicle: saline
[17] = dose: 100.0 mg/kg/injection, schedule: Q01DX001 (ip), vehicle: saline
[18] = dose: 200.0 mg/kg/injection, schedule: Q01DX001 (ip), vehicle: saline
[19] = dose: 400.0 mg/kg/injection, schedule: Q01DX009 (ip), vehicle: Klucel (hydroxypropylcellulose) (HPC)

Cc1ccc(C)c(NC(=O)Oc2ccc(C(=O)OCc3ccccc3)cc2)c1
T/C (dose: 25.0 mg/kg/injection, schedule: Q01DX009 (ip), vehicle: Klucel (hydroxypropylcellulose) (HPC)): 100 % of control | T/C (dose: 50.0 mg/kg/injection, schedule: Q01DX009 (ip), vehicle: Klucel (hydroxypropylcellulose) (HPC)): 88 % of control | T/C [1]: 93 % of control and 104 % of control | T/C [2]: 107 % of control | T/C [3]: 95 % of control | T/C [4]: 98 % of control | T/C [5]: 101 % of control

O=[N+]([O-])c1cc(Cl)cc2c1-c1ccc(Cl)cc1/C2=N\O
T/C [6]: 103 % of control | T/C [7]: 103 % of control | T/C [8]: 103 % of control

CC(=O)N(C)C1=C(Sc2ccc([N+](=O)[O-])cc2)C(=O)c2ccccc2C1=O
T/C (dose: 50.0 mg/kg/injection, schedule: Q04DX003 (ip), vehicle: other): 92 % of control | T/C (dose: 100.0 mg/kg/injection, schedule: Q01DX001 (ip), vehicle: other): 97 % of control | T/C [9]: 97 % of control | T/C (dose: 200.0 mg/kg/injection, schedule: Q01DX001 (ip), vehicle: other): 96 % of control | T/C [10]: 86 % of control | T/C (dose: 400.0 mg/kg/injection, schedule: Q01DX001 (ip), vehicle: other): 92 % of control

C/C=C/C(=O)OC1CC2OC3C=C(C)C4OC4C3(C)C1(C)C21CO1 (configuration not stated)
T/C (dose: 50.0 mg/kg/injection, schedule: Q01DX009 (ip), vehicle: saline): 96 % of control | T/C [11]: 96 % of control | T/C [12]: 90 % of control | T/C [13]: 108 % of control | T/C [14]: 92 % of control | T/C [15]: 88 % of control

Nc1nc(N)nc(Cc2nc(N)nc(N)n2)n1
T/C (dose: 50.0 mg/kg/injection, schedule: Q01DX001 (ip), vehicle: carboxymethylcellulose (CMC)): 90 % of control | T/C [6]: 87 % of control | T/C [7]: 92 % of control | T/C [8]: 95 % of control

Cc1cccc2c(Nc3ccc(NS(C)(=O)=O)cc3)c3ccc([N+](=O)[O-])cc3nc12
T/C (dose: 4.8 mg/kg/injection, schedule: Q01DX009 (ip), vehicle: Klucel (hydroxypropylcellulose) (HPC)): 151 % of control | T/C (dose: 9.5 mg/kg/injection, schedule: Q01DX009 (ip), vehicle: Klucel (hydroxypropylcellulose) (HPC)): 176 % of control | T/C (dose: 10.0 mg/kg/injection, schedule: Q01DX009 (sc), vehicle: saline): 107 % of control | T/C (dose: 19.0 mg/kg/injection, schedule: Q01DX009 (ip), vehicle: Klucel (hydroxypropylcellulose) (HPC)): 154 % of control | T/C (dose: 20.0 mg/kg/injection, schedule: Q01DX009 (sc), vehicle: saline): 121 % of control | T/C (dose: 40.0 mg/kg/injection, schedule: Q01DX009 (sc), vehicle: saline): 123 % of control | T/C (dose: 80.0 mg/kg/injection, schedule: Q01DX009 (sc), vehicle: saline): 152 % of control | T/C (dose: 178.0 mg/kg/injection, schedule: Q01DX001 (ip), vehicle: saline): 102 % of control | T/C (dose: 267.0 mg/kg/injection, schedule: Q01DX001 (ip), vehicle: saline): 97 % of control | T/C [16]: 103 % of control

CCC1(C)CC(=O)N(C/C=C(\C)CCC(=O)O)C(=O)C1
T/C (dose: 100.0 mg/kg/injection, schedule: Q01DX009 (ip), vehicle: other): 103 % of control | T/C [9]: 89 % of control | T/C (dose: 200.0 mg/kg/injection, schedule: Q01DX009 (ip), vehicle: other): 101 % of control | T/C [10]: 100 % of control | T/C (dose: 400.0 mg/kg/injection, schedule: Q01DX009 (ip), vehicle: other): 93 % of control | T/C (dose: 400.0 mg/kg/injection, schedule: Q04DX003 (ip), vehicle: other): 96 % of control

CCN=C(NCC)c1ccc(NC(=O)c2ccc(C(=O)Nc3ccc(C(=NCC)NCC)cc3)c(Cl)c2)cc1
T/C (dose: 1.87 mg/kg/injection, schedule: Q01DX Z (ip), vehicle: carboxymethylcellulose (CMC)): 101 % of control | T/C (dose: 3.75 mg/kg/injection, schedule: Q01DX Z (ip), vehicle: carboxymethylcellulose (CMC)): 97 % of control | T/C (dose: 7.5 mg/kg/injection, schedule: Q01DX Z (ip), vehicle: carboxymethylcellulose (CMC)): 103 % of control

O=C1CCCC(=O)NNC(=O)Nc2ccccc2NC(=O)NN1
T/C (dose: 50.0 mg/kg/injection, schedule: Q01DX001 (ip), vehicle: saline): 102 % of control | T/C [17]: 90 % of control | T/C [18]: 96 % of control | T/C [16]: 96 % of control

Nc1nc(N)c(N=Nc2ccc(S(=O)(=O)c3ccc(N=Nc4c(N)nc(N)[nH]c4=O)cc3)cc2)c(=O)[nH]1
T/C [17]: 91 % of control | T/C [18]: 96 % of control | T/C [16]: 91 % of control

Cc1ccc(C(=O)c2cccc([N+](=O)[O-])c2)cc1
T/C [1]: 104 % of control | T/C [3]: 103 % of control | T/C [19]: 98 % of control

CSCC(O)CSC
T/C (dose: 100.0 mg/kg/injection, schedule: Q04DX002 (ip), vehicle: saline with Tween-80): 90 % of control | T/C (dose: 200.0 mg/kg/injection, schedule: Q04DX002 (ip), vehicle: saline with Tween-80): 93 % of control | T/C (dose: 400.0 mg/kg/injection, schedule: Q04DX002 (ip), vehicle: saline with Tween-80): 87 % of control

O=C1c2ccccc2C(F)(F)c2ccccc21
T/C [1]: 110 % of control | T/C [3]: 100 % of control | T/C [19]: 101 % of control

Cc1nccc2c(C)c3sc4ccccc4c3cc12
T/C (dose: 124.0 mg/kg/injection, schedule: Q01DX001 (ip), vehicle: alcohol): 96 % of control | T/C (dose: 186.0 mg/kg/injection, schedule: Q01DX001 (ip), vehicle: alcohol): 110 % of control | T/C (dose: 280.0 mg/kg/injection, schedule: Q01DX001 (ip), vehicle: alcohol): 117 % of control | T/C (dose: 320.0 mg/kg/injection, schedule: Q01DX001 (ip), vehicle: alcohol): 109 % of control

Oc1ccc(N=C/C=C/c2ccccc2)cc1
T/C [6]: 86 % of control | T/C [7]: 89 % of control | T/C [8]: 91 % of control

C/C(=N\N=C(/C)c1ccc(N)cc1)c1ccc(N)cc1
T/C [17]: 90 % of control | T/C [16]: 96 % of control

CCCC(F)C(Br)C(=O)O (configuration not stated)
T/C (dose: 100.0 mg/kg/injection, schedule: Q04DX002 (ip), vehicle: other): 90 % of control | T/C (dose: 200.0 mg/kg/injection, schedule: Q04DX002 (ip), vehicle: other): 90 % of control | T/C (dose: 400.0 mg/kg/injection, schedule: Q04DX002 (ip), vehicle: other): 90 % of control

Cn1nnnc1N
T/C [1]: 96 % of control | T/C [11]: 98 % of control | T/C [12]: 103 % of control | T/C [3]: 100 % of control | T/C [13]: 96 % of control | T/C [14]: 105 % of control | T/C [19]: 95 % of control | T/C (dose: 400.0 mg/kg/injection, schedule: Q01DX009 (ip), vehicle: saline): 89 % of control | T/C [15]: 100 % of control

CCCc1cnc(NCCCC(N)C(=O)O)nc1 (configuration not stated)
T/C (dose: 25.0 mg/kg/injection, schedule: Q04DX002 (ip), vehicle: saline): 95 % of control | T/C (dose: 50.0 mg/kg/injection, schedule: Q04DX002 (ip), vehicle: saline): 95 % of control | T/C (dose: 100.0 mg/kg/injection, schedule: Q04DX002 (ip), vehicle: saline): 89 % of control

Cc1ccc(Cl)cc1N=C=S
T/C (dose: 75.0 mg/kg/injection, schedule: Q01DX001 (ip), vehicle: saline): 100 % of control | T/C (dose: 150.0 mg/kg/injection, schedule: Q01DX001 (ip), vehicle: saline): 101 % of control | T/C (dose: 300.0 mg/kg/injection, schedule: Q01DX001 (ip), vehicle: saline): 106 % of control

CCCC(=O)N(CC(C)C)CC(C)C
T/C [2]: 101 % of control | T/C [4]: 95 % of control | T/C [5]: 97 % of control

CC(c1ccccc1)C(O)c1ccccc1 (configuration not stated)
T/C (dose: 100.0 mg/kg/injection, schedule: Q01DX001 (ip), vehicle: saline with Tween-80): 97 % of control | T/C (dose: 200.0 mg/kg/injection, schedule: Q01DX001 (ip), vehicle: saline with Tween-80): 91 % of control | T/C (dose: 400.0 mg/kg/injection, schedule: Q01DX001 (ip), vehicle: saline with Tween-80): 91 % of control

CCOC(=S)SCC(=O)c1cccc([N+](=O)[O-])c1
T/C [17]: 107 % of control | T/C [18]: 103 % of control | T/C [16]: 101 % of control
